From patent EP0000636A1, “Penem compounds, processes for their preparation, their use in pharmaceutical compositions and azetidinones used in their preparation” (GLAXO GROUP LIMITED, priority 1977, dated 1979) come the findings set out here.

Series [1] deals with E. coli 851E. Briefly: Determination of Minimum Inhibitory Concentrations (MIC), agar dilution. The format is cell-based. Particulars: Escherichia coli. The source says:
(§1) Biological testing of a number of compounds of the invention has provided the results shown below;-the test compounds are identified by their Example Numbers: 1. Determination of Minimum Inhibitory Concentrations (MIC)
(§2) Serial two-fold dilutions of freshly prepared test solutions were made into Oxoid No. 1 Nutrient agar with or without added enrichment and poured into petri diches. Plates were inoculated with a multipoint inoculator with inoculum containing approximately 10^5 colony forming units of the organisms shown in the following Tables, all of which organisms are clinical isolates. The MIC, quoted in the Tables as µg/ml, was read after 18 hours incubation at 37°C as the lowest concentration which inhibited growth.. N.T. means not tested.
For orientation: In agar dilution, organisms are placed on agar that contains the substance at set levels.

For series [2], the system named is Micrococcus Sp 1810E. Described as above. It is filed as cell-based. As to conditions: SP1810E.
From the text: as §1, §2

Series [3] concerns E. cloacae 1051E. The series is described as above. The format is cell-based. Particulars: Enterobacter cloacae.
From the text: as §1, §2

In series [4] the test system is Staph.aureus 853E. The series is described as above. The format is cell-based. As to conditions: Staphylococcus aureus.
From the text: as §1, §2

For series [5], the system named is H. influenzae 1184E. The description is as above. It is filed as cell-based. As to conditions: Haemophilus influenzae.
From the text: as §1, §2

The test system of series [6] is S. marcescens 1324E. The description is as above. The format is cell-based. As to conditions: Serratia marcescens.
From the text: as §1, §2

Series [7] has as its system E. cloacae 1321E. The series is described as above. As to conditions: Enterobacter cloacae. The format is cell-based.
From the text: as §1, §2

Series [8] concerns K. aerogenes 1522E. Described as above. It is filed as cell-based. As to conditions: Klebsiella aerogenes.
From the text: as §1, §2

Series [9] can be described thus: Toxicity (LD50) in mice. As to conditions: mouse, in vivo, ip; administered intraperitoneally to mice.
[10] abbreviates: E. coli 851E, clinical isolate, Oxoid No. 1 Nutrient agar, approximately 10^5 colony forming units, 18 hours at 37°C, read-out: MIC.
Setting [11] is: Micrococcus Sp 1810E, clinical isolate, Oxoid No. 1 Nutrient agar, approximately 10^5 colony forming units, 18 hours at 37°C, read-out: MIC.
Where [12] appears, read: E. cloacae 1051E, clinical isolate, Oxoid No. 1 Nutrient agar, approximately 10^5 colony forming units, 18 hours at 37°C, read-out: MIC.
Where [13] appears, read: Staph.aureus 853E, clinical isolate, Oxoid No. 1 Nutrient agar, approximately 10^5 colony forming units, 18 hours at 37°C, read-out: MIC.
The mark [14] stands for this setting: H. influenzae 1184E, clinical isolate, Oxoid No. 1 Nutrient agar, approximately 10^5 colony forming units, 18 hours at 37°C, read-out: MIC.
Setting [15] is: S. marcescens 1324E, clinical isolate, Oxoid No. 1 Nutrient agar, approximately 10^5 colony forming units, 18 hours at 37°C, read-out: MIC.
Where [16] appears, read: E. cloacae 1321E, clinical isolate, Oxoid No. 1 Nutrient agar, approximately 10^5 colony forming units, 18 hours at 37°C, read-out: MIC.
The mark [17] stands for this setting: K. aerogenes 1522E, clinical isolate, Oxoid No. 1 Nutrient agar, approximately 10^5 colony forming units, 18 hours at 37°C, read-out: MIC.

Values after ≈ are worked out from the molar mass of the structure shown. Like-named read-outs stand apart in the source and are kept apart here.

In general, LD50 refers to the dose expected to kill half of the subjects tested.

Turning to `O=C(O)C1=C(CCO)SC2CC(=O)N12` (racemic) [Example 11, Potassium (5RS)-2-(2-hdroxethyl)pen-2-em-3-carboxylate], the MIC was 4 µg/mL in series [1] (setting [10]); under 0.1 µg/mL in series [2] (setting [11]); 8 µg/mL in [3] (setting [12]); 0.5 µg/mL in series [4] (setting [13]); 8 µg/mL in series [5] (setting [14]); 8 µg/mL in series [6] (setting [15]). Also, the values for the MIC in [7] (setting [16]) and in series [8] (setting [17]) were 4 µg/mL and 8 µg/mL, respectively.
Regarding `CC(=O)OCCC1=C(C(=O)O)N2C(=O)CC2S1` (racemic) [Example 13, Potassium (5RS)-2-(2-acetoxethyl)pen-2-em-3-carbolate], the MIC in [1] (setting [10]) was 4 µg/mL; in series [2] (setting [11]), 0.2 µg/mL; in [3] (setting [12]), 16 µg/mL; in series [4] (setting [13]) it was 0.5 µg/mL; in series [6] (setting [15]) it was 62 µg/mL; in [7] (setting [16]), 2 µg/mL. Moreover, in series [8] (setting [17]), the MIC was found to be 8 µg/mL.
`NC(=O)OCCC1=C(C(=O)O)N2C(=O)CC2S1` (racemic) [Example 18, (5RS)-2-(2-Carbamoyloxethyl)pen-2-em-3-carboxlic acid]: the MIC is 2 µg/mL (≈ 7.74 µM) in series [1] (setting [10]); under 0.1 µg/mL in series [2] (setting [11]); 8 µg/mL (≈ 31 µM) in series [3] (setting [12]); under 0.1 µg/mL in series [4] (setting [13]); 2 µg/mL (≈ 7.74 µM) in series [5] (setting [14]); 4 µg/mL (≈ 15.5 µM) in series [6] (setting [15]). The values for the MIC in series [7] (setting [16]) and in [8] (setting [17]) were 2 µg/mL (≈ 7.74 µM) and 4 µg/mL (≈ 15.5 µM), respectively.
Turning to `CNC(=O)OCCC1=C(C(=O)O)N2C(=O)CC2S1` (racemic) [Example 21], the MIC is 4 µg/mL (≈ 14.7 µM) in series [1] (setting [10]); under 0.1 µg/mL in series [2] (setting [11]); 31 µg/mL (≈ 114 µM) in [3] (setting [12]); 0.2 µg/mL (≈ 0.735 µM) in series [4] (setting [13]); 4 µg/mL (≈ 14.7 µM) in series [5] (setting [14]); 4 µg/mL (≈ 14.7 µM) in [6] (setting [15]). Also, the MIC in series [7] (setting [16]) and in [8] (setting [17]) was 4 µg/mL (≈ 14.7 µM) in each case.
On to `CCCCC1=C(C(=O)O)N2C(=O)CC2S1` (racemic) [Example 26, (5RS)2-n-Butylpen-2-em-3-carboxylic acid], for which the MIC in series [1] (setting [10]) was found to be 31 µg/mL (≈ 136 µM); in [3] (setting [12]), 125 µg/mL (≈ 550 µM); in [4] (setting [13]), 0.5 µg/mL (≈ 2.2 µM); in [5] (setting [14]), 4 µg/mL (≈ 17.6 µM); in [6] (setting [15]) it was 31 µg/mL (≈ 136 µM); in [7] (setting [16]), 31 µg/mL (≈ 136 µM). Moreover, in [8] (setting [17]), the MIC turned out to be 31 µg/mL (≈ 136 µM).
On to `CCCC1=C(C(=O)O)N2C(=O)CC2S1` (racemic) [Example 28, (5RS)-2-ProD^ylpen-2-em-3-carboxylic acid], for which the MIC is 0.5 µg/mL (≈ 2.34 µM) in [1] (setting [10]); under 0.1 µg/mL in series [2] (setting [11]); 4 µg/mL (≈ 18.8 µM) in [3] (setting [12]); under 0.1 µg/mL in series [4] (setting [13]); 1 µg/mL (≈ 4.69 µM) in series [5] (setting [14]); 1 µg/mL (≈ 4.69 µM) in [6] (setting [15]). Moreover, the MIC in series [7] (setting [16]) and in series [8] (setting [17]) was 0.5 µg/mL (≈ 2.34 µM) each time.
Take `CCC1=C(C(=O)[O-])N2C(=O)CC2[S+]1[O-].[K+]` (racemic) [Example 36, Potassium (5RS)-2-ethylpen-2-em-3-carboxylate-1-oxide]: the median lethal dose (LD50) in [9] is over 500 mg/kg. For the same molecule, the MIC in series [1] (851E, 18 h) was determined as 8 µg/mL; in series [2] (Micrococcus, 18 h) it was 0.1 µg/mL; in series [3] (1051E, 18 h), 8 µg/mL; in [4] (853E, 18 h), 0.5 µg/mL; in [5] (1184E, 18 h), 2 µg/mL; in [6] (1324E, 18 h), 8 µg/mL. Also, the MIC in series [7] (1321E, 18 h) is 8 µg/mL; in series [8] (1522E, 18 h) it was 8 µg/mL.
For `O=C([O-])C1=C(CCOC2CCCCO2)SC2CC(=O)N12.[K+]` (racemic) [Example 43, Potassium (5RS)-2-[2-(tetrahydropyran-2-yloxy)ethyl]-pen-2-em-3-carboxylate], the LD50 in series [9] is over 500 mg/kg.
For `COCCC1=C(C(=O)[O-])N2C(=O)CC2S1.[Na+]` (racemic) [Example 45, Sodium (5RS)-2-(2-methoxyethyl)pen-2-em-3-carboxylate], the MIC in series [1] (851E, 18 h) is 2 µg/mL; in series [2] (Micrococcus, 18 h), under 0.1 µg/mL; in series [3] (1051E, 18 h), 8 µg/mL; in series [4] (853E, 18 h) it was 0.5 µg/mL; in [5] (1184E, 18 h), 4 µg/mL; in series [6] (1324E, 18 h), 8 µg/mL. For the same molecule, the MIC in series [7] (1321E, 18 h) was determined as 2 µg/mL; in [8] (1522E, 18 h), 4 µg/mL.
For `COCC1=C(C(=O)O)N2C(=O)CC2S1` (racemic) [Example 52, Potassium (5RS)-2-methoxymethylen-2-em-3-carboxylate], the MIC in series [1] (setting [10]) was determined as 4 µg/mL; in series [2] (setting [11]), 0.2 µg/mL; in series [3] (setting [12]), 8 µg/mL; in series [4] (setting [13]) it was 0.5 µg/mL; in [5] (setting [14]), 4 µg/mL; in series [6] (setting [15]) it was 4 µg/mL. Moreover, the results for the MIC in series [7] (setting [16]) and in series [8] (setting [17]) were 2 µg/mL and 4 µg/mL, respectively.
Take `O=C(CCl)OCCC1=C(C(=O)[O-])N2C(=O)CC2S1.[K+]` (racemic) [Example 57, Potassium (5RS)-2-[2-(2-chloroacetyl)oxyethyl]pen-2-em-3-carboxylate]: the MIC in series [1] (851E, 18 h) came out at 8 µg/mL; in series [2] (Micrococcus, 18 h), 0.2 µg/mL; in [3] (1051E, 18 h) it was 16 µg/mL; in [4] (853E, 18 h) it was 0.5 µg/mL; in series [5] (1184E, 18 h), 4 µg/mL; in series [6] (1324E, 18 h) it was 8 µg/mL. Moreover, the MIC in series [7] (1321E, 18 h) was 8 µg/mL; in [8] (1522E, 18 h) it was 8 µg/mL.
Regarding `CC1=C(C(=O)O)N2C(=O)CC2S1` (single isomer, unassigned) [Example 6], the MIC came to 8 µg/mL (≈ 43.2 µM) in series [1] (setting [10]); 0.2 µg/mL (≈ 1.08 µM) in series [2] (setting [11]); 16 µg/mL (≈ 86.4 µM) in series [3] (setting [12]); 1 µg/mL (≈ 5.4 µM) in series [4] (setting [13]); 4 µg/mL (≈ 21.6 µM) in [5] (setting [14]); 8 µg/mL (≈ 43.2 µM) in series [6] (setting [15]). The MIC in [7] (setting [16]) stood at 8 µg/mL (≈ 43.2 µM); in [8] (setting [17]), 16 µg/mL (≈ 86.4 µM).
